Several values for one entry are separate records, joined by “and”; a condition that tells them apart may be missing. Equal values may be shown once. Where a name gives a salt, the structure may show the parent alone.
Experiments:
[1] = Dynamic vapor sorption (DVS) test; type: physicochemical
Method: • Instrument: TA Instruments Q5000 SA • Detection method: 20 to 50 mg of the sample was placed in a tared sample basket and automatically weighed, and DVS testing was performed according to the parameters in Table 7: Step Time: 60 min; Equilibration Time per RH%: 1 hour; Total Gas Flow Rate: 200 sccm; Gradient mode: 0%-90%-0% humidity variation, with a humidity variation amount of 10% for each gradient level between 0% and 90%, and gradient endpoint was determined by dm/dt < 0.01% maintained for 10 minutes.

[2] = Stability test, samples placed open for 7 days (HPLC and XRPD); type: physicochemical; conditions: HPLC
[3] = as above; type: physicochemical; conditions: for XRPD-7days / Purity (Peak area%) 7 days: open
Source text: Subsequently, the samples after 7 days were respectively detected by HPLC and XRPD to determine their chemical and physical stabilities.

[4] = Solubility comparison in water, SGF, FaSSIF and FeSSIF (HPLC of filtrates, XRPD of filter cakes); conditions: time not stated
[5] = system: MDA-MB-453; assay: In vitro tumor cell proliferation inhibition test (CTG); type: cell-based; conditions: 4-7 days; for Maximum Inhibition Rate: HR-/HER2+ Breast cancer; for IC50: Homo sapiens, MDA-MB-453, HR-/HER2+ Breast cancer
Method: (§1) The cells were subcultured regularly, and those in the logarithmic growth phase were taken for plating. The cells were stained with trypan blue and the viable cells were counted. The cell concentration was adjusted to an appropriate level. The cell suspension was added to each well of the culture plate, and the culture medium without cells was added to the blank control wells. […] The compound working solution was added to the cell culture plate, and DMSO at the same final concentration was added to the solvent control wells. Then the plate was returned to the incubator for 4-7 days of culture. The cell viability was detected according to the instructions of the Promega CellTiter-Glo (CTG) Luminescent Cell Viability Assay Kit (Promega-G7573). […] The IC50 was calculated using the following equation: [formula] • X: log(concentration) • Y: response value, negatively correlated with X • HillSlope: slope factor • Note: […]

[6] = system: MDA-MB-231; assay: as above; type: cell-based; conditions: 4-7 days; for IC50: Homo sapiens, MDA-MB-231, Triple-negative breast cancer; for Maximum Inhibition Rate: Triple-negative breast cancer
Method: as §1

[7] = system: MCF-7; assay: as above; type: cell-based; conditions: 4-7 days; for Maximum Inhibition Rate: HR+/HER2- Breast cancer; for IC50: Homo sapiens, MCF7, HR+/HER2- Breast cancer
Method: as §1

[8] = system: MDA-MB-468 (Rb-); assay: as above; type: cell-based; conditions: 4-7 days; for Maximum Inhibition Rate: Breast cancer (primary resistance to Palbociclib); for IC50: Homo sapiens, MDA-MB-468, Breast cancer (primary resistance to Palbociclib)
Method: as §1

[9] = system: T47D; assay: as above; type: cell-based; conditions: HR+/HER2- Breast cancer, 4-7 days; for IC50: Homo sapiens, T47D
Method: as §1

[10] = system: xMCF-7/Palbo-R; assay: as above; type: cell-based; conditions: Breast cancer (acquired resistance to Palbociclib), 4-7 days
Method: as §1

[11] = system: HCC1187; assay: as above; type: cell-based; conditions: 4-7 days; for IC50: Homo sapiens, HCC1187, Triple-negative breast cancer; for Maximum Inhibition Rate: Triple-negative breast cancer
Method: as §1

[12] = system: Hep3B (Rb-); assay: as above; type: cell-based, Human; conditions: Liver cancer, 4-7 days
Method: (§2) The tumor cell strains were cultured in an incubator at 37 °C with 5% CO2. The cells were subcultured regularly, and those in the logarithmic growth phase were taken for plating. The cells were stained with trypan blue and the viable cells were counted. The cell concentration was adjusted to an appropriate level. The cell suspension was added to each well of the culture plate, and the culture medium without cells was added to the blank control wells. The culture plate was incubated overnight in an incubator at 37 °C, 5% CO2, and 100% RH. […] The compound working solution was added to the cell culture plate, and DMSO at the same final concentration was added to the solvent control wells. Then the plate was returned to the incubator for 4-7 days of culture. The cell viability was detected according to the instructions of the Promega CellTiter-Glo (CTG) Luminescent Cell Viability Assay Kit (Promega-G7573).
(§3) The inhibition rates of the compound at different concentrations were calculated in Excel, then the inhibition curve was plotted using GraphPad Prism software and relevant parameters, including the minimum inhibition rate, maximum inhibition rate, and IC50 were calculated.

[13] = system: HT-29; assay: as above; type: cell-based, Human; conditions: 4-7 days
Method: as §2, §3

[14] = system: MOLM-13; assay: as above; type: cell-based, Human; conditions: 4-7 days
Method: as §2, §3

[15] = system: COLO 205; assay: as above; type: cell-based, Human; conditions: 4-7 days
Method: as §2, §3

[16] = system: SK-MEL-5; assay: as above; type: cell-based, Human; conditions: 4-7 days
Method: as §2, §3

[17] = system: HCT 116; assay: as above; type: cell-based, Human; conditions: 4-7 days
Method: as §2, §3

[18] = system: A2780; assay: as above; type: cell-based, Human; conditions: 4-7 days
Method: as §2, §3

[19] = system: Huh-7; assay: as above; type: cell-based, Human; conditions: 4-7 days
Method: as §2, §3

[20] = system: NCI-H211; assay: as above; type: cell-based, Human; conditions: 4-7 days
Method: as §2, §3

[21] = system: MV-4-11; assay: as above; type: cell-based, Human; conditions: 4-7 days
Method: as §2, §3

[22] = system: JHH-7; assay: as above; type: cell-based, Human; conditions: 4-7 days
Method: as §2, §3

In the case of CC(=O)c1c(C)c2cnc(Nc3ccc4c(c3)OC[C@@H]3CN(C5CCN(C)CC5)CCN43)nc2n(C2CCCC2)c1=O [crystalline form C of the benzenesulfonate of compound A], the moisture absorption ([1]; DVS, at 80% RH) is reported as 1.2%, the “Purity (Peak area%) 0 day” value [2] is reported as 98.79 Peak area% and the XRPD-7days ([3]; 40°C /75%RH) is reported as “remained unchanged”. The “Purity (Peak area%) 7 days” value ([3]; 40°C /75%RH, HPLC) was 98.79 Peak area%, the XRPD-7days ([3]; 60°C) was “remained unchanged” and the “Purity (Peak area%) 7 days” value ([3]; 60°C, HPLC) was 98.89 Peak area%. The XRPD-7days ([3]; 92.5%RH) was “changed into a new crystalline form” and the “Purity (Peak area%) 7 days” value ([3]; 92.5%RH, HPLC) was 98.84 Peak area%.

With CC(=O)c1c(C)c2cnc(Nc3ccc4c(c3)OC[C@@H]3CN(C5CCN(C)CC5)CCN43)nc2n(C2CCCC2)c1=O [Compound A] the “solubility in SGF” value ([4]; SGF, listed as free base) was “greater than 5 mg/mL”, the solubility in water ([4]; water) was “approximately 0.003 mg/mL” and the “Maximum Inhibition Rate” value [5] was 102.600%. For the same compound, the “Maximum Inhibition Rate” value ([5]; listed as compound A) was about 100%, the IC50 [5] was 384 nM and the IC50 [6] was 3.45 µM. For the same compound, the “Maximum Inhibition Rate” value [6] was 99.567%, the “Maximum Inhibition Rate” value [7] was 99.937% and the IC50 [7] was 76 nM. For the same compound, the “Maximum Inhibition Rate” value [8] was 99.693%, the “Maximum Inhibition Rate” value ([8]; listed as compound A) was “exceeding 99%” and the IC50 [8] was 440 nM. The “Maximum Inhibition Rate” value [9] was 99.910%, the IC50 [9] was 1500 nM and the IC50 [10] was 3.09 µM. For the same compound, the “Maximum Inhibition Rate” value [10] was 99.677%, the IC50 [11] was 1110 nM and the “Maximum Inhibition Rate” value [11] was 99.777%. For the same compound, the IC50 ([12]; Homo sapiens, Hep3B) was 3.33 µM, the “Maximum Inhibition Rate” value [12] was 99.055% and the “Maximum Inhibition Rate” value ([12]; listed as compound A) was “exceeding 99%”. For the same compound, the “Maximum Inhibition Rate” value ([13]; Colorectal cancer) was 95.622%, the IC50 ([13]; Homo sapiens, HT-29, Colorectal cancer) was 113 nM and the “Maximum Inhibition Rate” value ([14]; Hematological tumor) was 99.993%. For the same compound, the IC50 ([14]; Homo sapiens, MOLM-13, Hematological tumor) was 370 nM, the “Maximum Inhibition Rate” value ([15]; Colorectal cancer) was 99.093% and the IC50 ([15]; Homo sapiens, COLO 205, Colorectal cancer) was 734 nM. For the same compound, the IC50 ([16]; Homo sapiens, SK-MEL-5, Melanoma) was 9.5 µM, the “Maximum Inhibition Rate” value ([16]; Melanoma) was 99.213% and the “Maximum Inhibition Rate” value ([17]; Colorectal cancer) was 99.244%. For the same compound, the IC50 ([17]; Homo sapiens, HCT-116, Colorectal cancer) was 134 nM, the IC50 ([18]; Homo sapiens, A2780, Ovarian cancer) was 438 nM and the “Maximum Inhibition Rate” value ([18]; Ovarian cancer) was 98.887%. The IC50 ([19]; Homo sapiens, Huh-7, Liver cancer) was 107 nM, the “Maximum Inhibition Rate” value ([19]; Liver cancer) was 99.447% and the IC50 ([20]; Homo sapiens, NCI-H211, Small cell lung cancer) was 201 nM. For the same compound, the “Maximum Inhibition Rate” value ([20]; Small cell lung cancer) was 99.883%, the “Maximum Inhibition Rate” value ([21]; Hematological tumor) was 99.897% and the IC50 ([21]; Homo sapiens, MV4-11, Hematological tumor) was 102 nM. For the same compound, the IC50 ([22]; Homo sapiens, JHH7, Liver cancer) was 107 nM and the “Maximum Inhibition Rate” value ([22]; Liver cancer) was 99.394%.

For CC(=O)c1c(C)c2cnc(Nc3ccc4c(c3)OC[C@@H]3CN(C5CCN(C)CC5)CCN43)nc2n(C2CCCC2)c1=O [crystalline form B of the hydrochloride salt of compound A], the “XRPD pattern / crystalline form after the DVS test” value ([1]; before vs after DVS test) was “did not change”, the “Purity (Peak area%) 0 day” value [2] was 99.31 Peak area% and the XRPD-7days ([3]; 40°C /75%RH) was “Unchanged”. For the same compound, the “Purity (Peak area%) 7 days” value ([3]; 40°C /75%RH, HPLC) was 99.33 Peak area%, the chemical stability ([3]; 60 °C, 92.5% RH and 40 °C/75% RH for 7 days, HPLC) was “chemically stable” and the XRPD-7days ([3]; 60°C) was “Unchanged”. For the same compound, the “Purity (Peak area%) 7 days” value ([3]; 60°C, HPLC) was 99.38 Peak area%, the XRPD-7days ([3]; 92.5%RH) was “Unchanged” and the “Purity (Peak area%) 7 days” value ([3]; 92.5%RH, HPLC) was 99.36 Peak area%. The “crystalline form (XRPD) after 7 days” value ([3]; under the three conditions 60 °C, 92.5% RH and 40 °C/75% RH) was “remained unchanged”.

In the case of CC(=O)c1c(C)c2cnc(Nc3ccc(N4CCNCC4)cn3)nc2n(C2CCCC2)c1=O [Palbociclib, reference compound], the IC50 [5] is reported as 188 nM, the IC50 [6] is reported as over 5 µM and the “Maximum Inhibition Rate” value [6] is reported as 41.943%. For the same compound, the “Maximum Inhibition Rate” value [7] was 96.983%, the IC50 [7] was 52 nM and the “Maximum Inhibition Rate” value [8] was 34% and 34.044%. The IC50 [8] was over 5000 nM, the “Maximum Inhibition Rate” value [9] was 48.850% and the IC50 [9] was over 5000 nM. For the same compound, the IC50 [10] was 7.7 µM, the “Maximum Inhibition Rate” value [10] was 98.367% and the IC50 [11] was over 5000 nM. The “Maximum Inhibition Rate” value [11] was 11.183%.

Source: patent EP4653445A1, “CDK INHIBITOR AND CRYSTAL FORM OF PHARMACEUTICALLY ACCEPTABLE SALT THEREOF, AND USE THEREOF” (CSPC Zhongqi Pharmaceutical Technology (Shijiazhuang) Co., …, priority 2023, dated 2024)
